Biological target: T1, FHV protein A (MBP-Pro A) (Flock House virus, UniProt Q66929)
T1 construct: N-terminal MBP fusion (pMAL-c2X, EcoRI-SalI), tag kept; E. coli, amylose resin; ~155 kDa
Experiment: RdRP assay, DIG-labelled RNA product on denaturing gel
Format: biochemical
Conditions: blocked (+)-RNA1_1-191 template, 250 uM DIG RNA Labelling Mix, 1 mM MnCl2, pH 8.0, 30 C, 90 min

T1 sequence (Q66929 whole entry, the tested form may be a part): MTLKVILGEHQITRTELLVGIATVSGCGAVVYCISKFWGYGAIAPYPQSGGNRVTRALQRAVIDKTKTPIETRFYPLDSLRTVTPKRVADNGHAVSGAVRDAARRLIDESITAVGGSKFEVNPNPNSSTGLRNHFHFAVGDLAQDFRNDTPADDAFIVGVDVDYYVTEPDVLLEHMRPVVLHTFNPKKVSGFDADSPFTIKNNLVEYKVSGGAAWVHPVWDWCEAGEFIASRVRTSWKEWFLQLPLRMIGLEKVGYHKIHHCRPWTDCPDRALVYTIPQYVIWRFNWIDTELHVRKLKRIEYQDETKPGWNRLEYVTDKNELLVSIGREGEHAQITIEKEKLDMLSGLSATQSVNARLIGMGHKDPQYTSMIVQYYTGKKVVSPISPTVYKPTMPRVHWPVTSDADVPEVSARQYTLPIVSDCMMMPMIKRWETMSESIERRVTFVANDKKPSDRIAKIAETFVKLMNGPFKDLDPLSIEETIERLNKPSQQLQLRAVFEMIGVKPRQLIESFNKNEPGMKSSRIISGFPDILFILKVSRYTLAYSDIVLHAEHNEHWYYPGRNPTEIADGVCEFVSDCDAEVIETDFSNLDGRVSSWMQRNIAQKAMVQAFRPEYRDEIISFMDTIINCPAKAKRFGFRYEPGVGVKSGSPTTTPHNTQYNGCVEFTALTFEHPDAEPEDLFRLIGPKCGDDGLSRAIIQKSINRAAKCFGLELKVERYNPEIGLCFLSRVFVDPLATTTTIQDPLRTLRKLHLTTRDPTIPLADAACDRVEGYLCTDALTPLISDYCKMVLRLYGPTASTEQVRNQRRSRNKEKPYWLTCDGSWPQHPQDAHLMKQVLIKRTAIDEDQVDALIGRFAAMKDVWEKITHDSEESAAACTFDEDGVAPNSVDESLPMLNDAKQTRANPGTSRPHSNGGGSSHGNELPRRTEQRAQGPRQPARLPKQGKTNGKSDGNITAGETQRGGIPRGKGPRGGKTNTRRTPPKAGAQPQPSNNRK

Q: `O=C(O)CP(=O)(O)O` [PAA, phosphonoacetic acid] was tested. Which “inhibition, dose-response” value did it give?
A: PAA dramatically inhibited the RdRP activity of FHV protein A in a dose-response manner

— article PMC3900681, “Flock House Virus RNA Polymerase Initiates RNA Synthesis De Novo and Possesses a Terminal Nucleotidyl Transferase Activity” (PLoS ONE, 2014)
